Results reported in publication PMC10487436, “Towards Anticancer and Antibacterial Agents: Design and Synthesis of 1,2,3-Triazol-quinobenzothiazine Derivatives” (International Journal of Molecular Sciences, 2023).

Legend:
[1] = system: methicillin-resistant S. aureus SA 3202; test: MIC, microtitration broth method, MRSA1; type: cell-based; conditions: Staphylococcus aureus; 24 h at 37 °C
Protocol: (§1) In vitro antibacterial activity of the synthesized compounds was evaluated against representatives of multidrug-resistant bacteria, three clinical isolates of methicillin-resistant S. aureus: clinical isolates of animal origin, MRSA 63718 (Department of Infectious Diseases and Microbiology, Faculty of Veterinary Medicine, University of Veterinary Sciences Brno, Czech Republic), carrying the mecA gene; and MRSA SA 630 and MRSA SA 3202 [52] (National Institute of Public Health, Prague, Czech Republic), both of human origin. […] Vancomycin- and methicillin-susceptible S. aureus ATCC 29213 and vancomycin-susceptible Enterococcus faecalis ATCC 29212, obtained from the American Type Culture Collection, were used as the reference and quality control strains. Three vanA gene-carrying vancomycin-resistant isolates of E. faecalis (VRE 342B, VRE 368, VRE 725B) were provided by Oravcova et al..
(§2) The minimum inhibitory concentrations (MICs) were evaluated by the microtitration broth method according to the CLSI, with some modifications. The compounds were dissolved in DMSO (Sigma, St. Louis, MO, USA) to obtain a concentration of […] and diluted in a microtitration plate in an appropriate medium, i.e., Cation Adjusted Mueller–Hinton Broth (CaMH, Oxoid, Basingstoke, UK) for staphylococci, and Brain Heart Infusion Broth (BHI, Oxoid) for enterococci, to reach the final concentration of 256–0.125 µg/mL. Microtiter plates were inoculated with test micro-organisms so that the final concentration of bacterial cells was 10^5. […] A drug-free control and a sterility control were included. The plates were incubated for 24 h at 37 °C for staphylococci and enterococci. […] The experiments were repeated three times.

[2] = system: NHDF (normal human dermal fibroblasts); test: WST-1 proliferation assay, NHDF; type: cell-based; conditions: Homo sapiens, NHDF, normal cells, 72 h exposure
Protocol: (§3) Compounds were evaluated for their antiproliferative activity using three cultured cell lines: A549 (human lung carcinoma, ATCC, Manassas, VA, USA), SNB-19 (human glioblastoma, DSMZ, German Collection of Microorganisms and Cell Cultures), T-47D (human breast cancer, ATCC, Manassas, VA, USA), and NHDF (normal human dermal fibroblasts, ATCC, Manassas, VA, USA). The cultured cells were kept at 37 °C and 5% CO2. The cells were seeded (1 × 10^4 cells/well/100 μL DMEM supplemented with 10% FCS, streptomycin, and penicillin) using 96-well plates (corning). Cells were counted in a hemocytometer (Burker chamber) using a phase contrast Olympus IX50 microscope equipped with a Sony SSC-DC58 AP camera and an Olympus DP10 digital camera.
(§4) The antiproliferative effect of the compounds exerted on cancer and normal cells was determined using the Cell Proliferation Reagent WST-1 assay (Roche Molecular Biochemicals, Mannheim, Germany). This assay is based on a colorimetric method using the enzymatic ability of viable cells to cause the bright, red-colored stable tetrazolium monosodium salt [2-(4-iodophenyl)-3-(4-nitrophenyl)-5-(2,4-disulfophenyl)–2H-tetra-zolium] to transform into the dark, red-colored soluble formazan. […] An increase in the amount of formazan dye formed correlated with the number of metabolically active cells in the culture. The formazan dye produced by metabolically active cells was quantified by absorbance readings at appropriate wavelengths. The examined cells were exposed to the tested compounds (1 mM DMSO stock) for 72 h at various concentrations (0.1–100 μM). The control was performed in order to eliminate the DMSO effect at the concentration used. Cell cultures were incubated with WST-1 (10 μL) for 1 h. The absorbance of the samples was measured against a background control at 450 nm using a microplate reader with a reference wavelength at 600 nm. The obtained results are expressed as the means of at least two independent experiments performed in triplicate. The antiproliferative activity of the tested compounds was compared to that of cisplatinum. The values of IC50 (a concentration of a compound that is required for 50% inhibition) were calculated from the dose-response relationship with respect to control. The results were reported as the mean (±std) of three separate experiments.

[3] = system: Staphylococcus aureus ATCC 29213; test: MBC, agar aliquot subculture method, SA; type: cell-based; conditions: ATCC29213
Protocol: (§5) For the above-mentioned strains/isolates, the agar aliquot subculture method was used as a test for bactericidal agents. After the MIC value determination, the inoculum was transferred to CaMH (Oxoid) for staphylococci, BHI (Oxoid) for enterococci, and Middlebrook 7H9 (Difco) for mycobacteria medium using a multipoint inoculator. As indicated above, the plates were incubated on a thermostat at 37 °C for the appropriate time for each micro-organism. The lowest concentration of test compound at which ≤5 colonies were obtained was then evaluated as MBC, corresponding to a 99.9% decrease in CFU relative to the original inoculum.

[4] = system: methicillin-resistant S. aureus 63718; test: MBC, agar aliquot subculture method, MRSA3; type: cell-based; conditions: Staphylococcus aureus
Protocol: as §5

[5] = system: Enterococcus faecalis ATCC 29213; test: MIC, microtitration broth method, EF; type: cell-based; conditions: ATCC29213, 24 h at 37 °C
[6] = system: Mycobacterium marinum CAMP 5644; test: MBC, agar aliquot subculture method, MM; type: cell-based; conditions: CAMP5644
Protocol: as §5

[7] = system: A549 (human lung carcinoma); test: WST-1 proliferation assay, A549; type: cell-based; conditions: Homo sapiens, A549, 72 h exposure
Protocol: as §3, §4

[8] = system: Mycobacterium smegmatis ATCC 700084; conditions: 3 days; for Conc.: lowest multiple of MBC with at least 70% inhibition of respiratory activity / Conc.: lowest multiple of MIC with at least 70% inhibition of respiratory activity: MTT; for M. smegmatis Respiration Inhibition: at the concentration (lowest multiple of MIC with at least 70% inhibition)
[9] = system: Mycobacterium marinum CAMP 5644; test: MIC, broth dilution micro-method, MM; type: cell-based; conditions: CAMP5644, 504 h, 21 days at 28 °C
[10] = system: Mycobacterium smegmatis ATCC 700084; test: MIC, broth dilution micro-method, MS; type: cell-based; conditions: Mycolicibacterium smegmatis, ATCC700084, 72 h; 3 days at 37 °C
[11] = system: Mycobacterium smegmatis ATCC 700084; test: MBC, agar aliquot subculture method, MS; type: cell-based; conditions: Mycolicibacterium smegmatis, ATCC700084
Protocol: as §5

[12] = system: methicillin-resistant S. aureus SA 3202; test: MBC, agar aliquot subculture method, MRSA1; type: cell-based; conditions: Staphylococcus aureus
Protocol: as §5

[13] = system: vancomycin-resistant E. faecalis VRE 725B; test: MIC, microtitration broth method, VRE3; type: cell-based; conditions: Enterococcus faecalis, 24 h at 37 °C
Protocol: as §1, §2

[14] = system: Staphylococcus aureus ATCC 29213; test: MIC, microtitration broth method, SA; type: cell-based; conditions: ATCC29213, 24 h at 37 °C
Protocol: as §1, §2

[15] = system: methicillin-resistant S. aureus SA 630; test: MIC, microtitration broth method, MRSA2; type: cell-based; conditions: Staphylococcus aureus; 24 h at 37 °C
Protocol: as §1, §2

[16] = system: SNB-19 (human glioblastoma); test: WST-1 proliferation assay, SNB-19; type: cell-based; conditions: Homo sapiens, SNB-19, 72 h exposure
Protocol: as §3, §4

[17] = system: methicillin-resistant S. aureus 63718; test: MIC, microtitration broth method, MRSA3; type: cell-based; conditions: Staphylococcus aureus; 24 h at 37 °C
Protocol: as §1, §2

[18] = system: vancomycin-resistant E. faecalis VRE 368; test: MIC, microtitration broth method, VRE2; type: cell-based; conditions: Enterococcus faecalis, 24 h at 37 °C
Protocol: as §1, §2

[19] = system: T-47D (human breast cancer); test: WST-1 proliferation assay, T47D; type: cell-based; conditions: Homo sapiens, T47D, 72 h exposure
Protocol: as §3, §4

[20] = system: vancomycin-resistant E. faecalis VRE 342B; test: MIC, microtitration broth method, VRE1; type: cell-based; conditions: Enterococcus faecalis, 24 h at 37 °C
Protocol: as §1, §2

[21] = system: methicillin-resistant S. aureus SA 630; test: MBC, agar aliquot subculture method, MRSA2; type: cell-based; conditions: Staphylococcus aureus
Protocol: as §5

C[n+]1cc2c(c3ccccc31)Nc1cc(OCc3cn(Cc4ccc([N+](=O)[O-])cc4)nn3)ccc1S2 [2h, 5-Methyl-10-[1-(4-nitrobenzyl)-1H-1,2,3-triazol-4-yl]methoxy-12H-quino [3,4-b][1,4]benzothiazinium chloride]
MIC [1]: 262 µM | IC50 [2]: > 100 µM | MBC [3]: 131 µM | MBC [4]: 131 µM | MIC [5]: > 524 µM | MBC [6]: 32.7 µM | IC50 [7]: 14.6 ± 0.6 µM | Conc.: lowest multiple of MBC with at least 70% inhibition of respiratory activity [8]: 1× MIC (1× MBC) | Conc.: lowest multiple of MIC with at least 70% inhibition of respiratory activity [8]: 1× MIC (1× MBC) | viability of M. smegmatis at MIC value ([8]; Mycobacterium smegmatis): less than 70% | M. smegmatis Respiration Inhibition [8]: 81.4% | MIC [9]: 32.7 µM | MIC [10]: 16.3 µM | MBC [11]: 16.3 µM | MBC [12]: 262 µM | MIC [13]: > 524 µM | MIC [14]: 131 µM | MIC [15]: 262 µM | IC50 [16]: 9.3 ± 0.5 µM | MIC [17]: 131 µM | MIC [18]: > 524 µM | IC50 [19]: 6.3 ± 0.3 µM | MIC [20]: > 524 µM | MBC [21]: 262 µM

C[n+]1cc2c(c3ccccc31)Nc1ccc(OCc3cn(CSc4ccccc4)nn3)cc1S2 [2j, 5-Methyl-9-(1-(phenylthio)methyl-1H-1,2,3-triazol-4-yl)methoxy-12H-quino [3,4-b][1,4]benzothiazinium chloride]
MIC [1]: 65.5 µM | IC50 [2]: 28.7 ± 1.2 µM | MBC [3]: 65.5 µM | MBC [4]: 32.7 µM | MIC [5]: 524 µM | MBC [6]: 16.3 µM | IC50 [7]: 10.5 ± 0.7 µM | Conc.: lowest multiple of MBC with at least 70% inhibition of respiratory activity [8]: 2× MIC (2× MBC) | Conc.: lowest multiple of MIC with at least 70% inhibition of respiratory activity [8]: 2× MIC (2× MBC) | M. smegmatis Respiration Inhibition [8]: 87.6% | MIC [9]: 16.3 µM | MIC [10]: 16.3 µM | MBC [11]: 16.3 µM | MBC [12]: 65.5 µM | MIC [13]: 524 µM | MIC [14]: 65.5 µM | MIC [15]: 65.5 µM | IC50 [16]: 8.8 ± 0.4 µM | MIC [17]: 32.7 µM | MIC [18]: 524 µM | IC50 [19]: 19.3 ± 1.2 µM | MIC [20]: 524 µM | MBC [21]: 65.5 µM

C[n+]1cc2c(c3ccccc31)Nc1cc(OCc3cn(CSc4ccccc4)nn3)ccc1S2 [2k, 5-Methyl-10-(1-(phenylthio)methyl-1H-1,2,3-triazol-4-yl)methoxy-12H-quino [3,4-b][1,4] benzothiazinium chloride]
MIC [1]: 65.5 µM | IC50 [2]: > 100 µM | MBC [3]: 65.5 µM | MBC [4]: 16.3 µM | MIC [5]: 524 µM | MBC [6]: 32.7 µM | IC50 [7]: 16.4 ± 0.9 µM | MIC [9]: 32.7 µM | MIC [10]: 32.7 µM | MBC [11]: 32.7 µM | MBC [12]: 65.5 µM | MIC [13]: 524 µM | MIC [14]: 65.5 µM | MIC [15]: 65.5 µM | IC50 [16]: 6.1 ± 0.3 µM | MIC [17]: 16.3 µM | MIC [18]: 524 µM | IC50 [19]: 10.6 ± 0.9 µM | MIC [20]: > 524 µM | MBC [21]: 65.5 µM

C[n+]1cc2c(c3ccccc31)Nc1c(OCc3cn(CSc4ccccc4)nn3)cccc1S2 [2l, 5-Methyl-11-(1-(phenylthio)methyl-1H-1,2,3-triazol-4-yl)methoxy-12H-quino [3,4-b][1,4] benzothiazinium chloride]
MIC [1]: 65.5 µM | IC50 [2]: > 100 µM | MBC [3]: 65.5 µM | MBC [4]: 32.7 µM | MIC [5]: 524 µM | MBC [6]: 16.3 µM | IC50 [7]: 14.1 ± 0.6 µM | Conc.: lowest multiple of MBC with at least 70% inhibition of respiratory activity [8]: 2× MIC (2× MBC) | Conc.: lowest multiple of MIC with at least 70% inhibition of respiratory activity [8]: 2× MIC (2× MBC) | M. smegmatis Respiration Inhibition [8]: 87.3% | MIC [9]: 16.3 µM | MIC [10]: 16.3 µM | MBC [11]: 16.3 µM | MBC [12]: 131 µM | MIC [13]: 524 µM | MIC [14]: 65.5 µM | MIC [15]: 65.5 µM | IC50 [16]: 9.6 ± 0.8 µM | MIC [17]: 32.7 µM | MIC [18]: 524 µM | IC50 [19]: 4.3 ± 0.2 µM | MIC [20]: 524 µM | MBC [21]: 65.5 µM
